# Source: US6576627B1, “Phosphonic acid derivatives having carboxypeptidase b inhibitory activity” (Meiji Seika Kaisha Ltd., priority 1999, dated 2003)
# Test system: ICR male mice
# Test: Toxicity test by single administration
# Type: in vivo
# Conditions: single intravenous administration in saline, dose of 1 g/kg, ICR male mice of 5 weeks old
# Experimental: Toxicity Test Example by Single Administration
# The compound of Example 19 of the present invention was dissolved in saline intravenously administered to 6 individuals of ICR male mice of 5 weeks old.
row,SMILES,death of the mice or severe toxicity
1,"CC(C)C(NC(=O)CCc1ccccc1)P(=O)(O)OC(CCCCN)C(=O)O [Example 19, (S)-6-Amino-2-((2-methyl-(1R)-(3-phenylpropanoylamino)propyl)(hydroxyphosphinoyl)oxy)hexanoic acid]",no death of the mice or severe toxicity was observed

# Target: T1, carboxypeptidase B (Homo sapiens, UniProt Q96IY4)
# T1 construct: from tissue; host or cells: human plasma (citrated)
# T1 sequence (Q96IY4 115-423): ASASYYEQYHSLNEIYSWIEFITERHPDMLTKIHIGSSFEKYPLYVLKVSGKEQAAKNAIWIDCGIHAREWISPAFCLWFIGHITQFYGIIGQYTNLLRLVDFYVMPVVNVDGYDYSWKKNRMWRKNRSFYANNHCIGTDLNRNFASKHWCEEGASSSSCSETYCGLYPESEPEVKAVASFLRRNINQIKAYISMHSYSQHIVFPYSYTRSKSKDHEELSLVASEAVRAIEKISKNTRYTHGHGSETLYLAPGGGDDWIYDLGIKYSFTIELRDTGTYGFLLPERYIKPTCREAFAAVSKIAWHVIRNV
# Test: Inhibitory activity against carboxypeptidase B (activated pro-CPB partially purified from human plasma, Hip-Arg substrate)
# Type: biochemical
# Conditions: tested substance 500 nM, 25° C. for 60 minutes, absorbance at 405 nm
# Experimental: Inhibitory activity of the compounds of the present invention against carboxypeptidase B was measured as follows according to the method described in Thromb. Haemost. 371(1998).
# (a) Partial Purification of Carboxypeptidase B Precursor (pro-CPB) from Human Plasma
# Human plasma collected over citric acid was added with 80 mM barium chloride and treated at 4° C. for 30 minutes. The supernatant obtained by centrifugation at 10,000 rpm for 20 minutes was dialyzed against 20 mM HEPES buffer containing 0.15 M sodium chloride (pH 7.4). Furthermore, protein in the fractions obtained with 30% to 80% ammonium sulfate were partially purified by chromatography using a Q-Sepharose column (elution with 50 mM tris-HCl buffer (pH 7.4) gradually containing sodium chloride to 0.5 M).
# (b) Activation of pro-CPB
# pro-CPB (20 μl) was added with 20 μl of a thrombomodulin solution (Thrombomodulin derived from rabbit lung, American Diagnostia Inc., Product No. #237, dissolved at concentration of 300 ng/ml in buffer A as 50 mM tris-HCl buffer (pH 7.4) supplemented with 0.1% Lubrol, 0.1% BSA and 0.15 M sodium chloride), and treated at 25° C. for 3 minutes. Then, the mixture was added with 20 μl of thrombin (Thrombin derived from human plasma, Sigma, Product No. T8885, dissolved at concentration of 3 u/ml in buffer B as 50 mM Tris-HCl buffer (pH 7.4) supplemented with 0.1% BSA, 0.15 M NaCl and 10 mM calcium chloride) and further treated at 25° C. for 30 minutes for activation(*1).
# (c) Measurement of CPB Inhibitory Activity
# By using a microplate, 4 μl of the sample was added with a mixed solution of 41 μl of buffer C (0.1 M tris-HCl buffer (pH 7.6)) and 25 μl of a substrate solution (Hip-Arg, Sigma, H2508, dissolved in buffer C at concentration of 4 mM.), and further added with 10 μl of the activated CPB solution (*1), and then the mixture was well mixed and allowed to react at 25° C. for 60 minutes. Then, 100 μl of 0.2 M PIPES buffer (pH 7.5) containing 12.5% Tween was added to the mixture to stop the reaction. After 5 minutes, the mixture was added with 100 μl of a coloring solution (2-methoxyethanol containing 1% cyanuryl chloride) and allowed to stand at room temperature for 15 minutes, and then absorbance was measured at 405 nm by using a microplate reader (Bio Rad Model 3550).
# Inhibitory activity against carboxypeptidase B was calculated by using the following equation as an inhibitory rate, wherein A represents absorbance in the absence of a tested substance; B represents absorbance in the presence of a tested substance (500 nM); A′ and B′ represent the aforementioned absorbances obtained by using non-activated enzyme without and with the tested substance, respectively.
# Inhibitory rate (%)=[1−{(B-B′)/(A-A′)}]×100
# The results of the carboxypeptidase B inhibitory rates are shown in Table 1, which were calculated by using the above equation and the results of the measurements in the above experiments for the compounds of the present invention.
row,SMILES,Carboxypeptidase B inhibitory rates by tested substance at 500 nM [%]
1,"CC(C)C(NC(=O)CCc1ccccc1)P(=O)(O)OC(CCCCN)C(=O)O [Example 2, (S)-6-Amino-2-((2-methyl-1-(3-phenylpropanoylamino)propyl)(hydroxyphosphinoyl)oxy)hexanoic acid]",>90

# Same assay, conditions: tested substance 500 nM, 25° C. for 60 minutes, absorbance at 405 nm, read-out: Carboxypeptidase B inhibitory rates by tested substance at 500 nM
row,SMILES,inhibition at 0.5 µM [%]
1,"CC(C)C(NC(=O)CCCc1ccccc1)P(=O)(O)OC(CCCCN)C(=O)O [Example 24, (S)-6-Amino-2-(2-methyl-1-(4-phenylbutanoylamino)propyl(hydroxyphosphinoyl)oxy)hexanoic acid]",> 90
2,"NCCCC[C@H](OP(=O)(O)C(NC(=O)CCc1ccccc1)C1CCC1)C(=O)O (stereo partly drawn) [Example 10, (S)-6-Amino-2-((1-cyclobutyl-1-(3-phenylpropanoylamino)methyl)(hydroxyphosphinoyl)oxy)hexanoic acid]",> 90
3,"NCCCCC(OP(=O)(O)C(NC(=O)CCc1ccccc1)c1ccccc1)C(=O)O [Example 34, (S)-6-Amino-2-((1-phenyl-1-(3-phenylpropanoylamino)methyl)(hydroxyphosphinoyl)oxy)hexanoic acid]",40
4,"NCCCCC(OP(=O)(O)C(NC(=O)CCc1ccccc1)C1CC1)C(=O)O [Example 6, (S)-6-Amino-2-((1-cyclopropyl(3-phenylpropanoylamino)methyl)(hydroxyphosphinoyl)oxy)hexanoic acid]",> 90
5,"C[C@H](NC(=O)OCc1ccccc1)P(=O)(O)O[C@@H](CCCCN)C(=O)O [Example 1, (S)-6-Amino-2-(((R)-1-(benzyloxycarbonylamino)ethyl)(hydroxyphosphinoyl)oxy)hexanoic acid]",30
6,"NCCCCC(OP(=O)(O)C(CCC(F)(F)F)NC(=O)CCc1ccccc1)C(=O)O [Example 25, (S)-6-Amino-2-((4,4,4-trifluoro-1-(3-phenylpropanoylamino)butyl)(hydroxyphosphinoyl)oxy)hexanoic acid]",80
7,"CCC(NC(=O)CCc1ccccc1)P(=O)(O)OC(CCCCN)C(=O)O [Example 16, (S)-6-Amino-2-((1-(3-phenylpropanoylamino)propyl)(hydroxyphosphinoyl)oxy)hexanoic acid]",> 90
8,"NCCCCC(OP(=O)(O)C(NC(=O)CCc1ccccc1)C1CCCCC1)C(=O)O [Example 9, (S)-6-Amino-2-((1-cyclohexyl-1-(3-phenylpropanoylamino)methyl)(hydroxyphosphinoyl)oxy)hexanoic acid]",> 90
9,"CCCC(NC(=O)CCc1ccccc1)P(=O)(O)OC(CCCCN)C(=O)O [Example 8, (S)-6-Amino-2-((1-(3-phenylpropanoylamino)butyl)(hydroxyphosphinoyl)oxy)hexanoic acid]",> 90
10,"CC(C)(C)CC(NC(=O)CCc1ccccc1)P(=O)(O)OC(CCCCN)C(=O)O [Example 23, (S)-6-Amino-2-((3,3-dimethyl-1-(3-phenylpropanoylamino)butyl)(hydroxyphosphinoyl)oxy)hexanoic acid]",50
11,"CC1CCC(C(NC(=O)CCc2ccccc2)P(=O)(O)OC(CCCCN)C(=O)O)CC1 [Example 41, (S)-6-Amino-2-((1-(4-methylcyclohexyl)-1-(3-phenylpropanoylamino)methyl)(hydroxyphosphinoyl)oxy)hexanoic acid]",> 90
12,"NCCCCC(OP(=O)(O)C(CO)NC(=O)CCc1ccccc1)C(=O)O [Example 37, (S)-6-Amino-2-((2-hydroxy-1-(3-phenylpropanoylamino)ethyl)(hydroxyphosphinoyl)oxy)hexanoic acid]",70
13,"NCCCCC(OP(=O)(O)C(NC(=O)CCc1ccccc1)C1CCNCC1)C(=O)O [Example 39, (S)-6-Amino-2-((1-(piperidin-4-yl)-1-(3-phenylpropanoylamino)methyl)(hydroxyphosphinoyl)oxy)hexanoic acid]",> 90
14,"NCCCC[C@H](OP(=O)(O)C1(NC(=O)CCc2ccccc2)CCCC1)C(=O)O [Example 20, (S)-6-Amino-2-((1-(3-phenylpropanoylamino)cyclopentyl)(hydroxyphosphinoyl)oxy)hexanoic acid]",> 90
15,"NCCCC[C@H](OP(=O)(O)C1(NC(=O)CCc2ccccc2)CCCCC1)C(=O)O [Example 14, (S)-6-Amino-2-((1-(3-phenylpropanoylamino)cyclohexyl)(hydroxyphosphinoyl)oxy)hexanoic acid]",> 90
16,"NCCCC[C@H](OP(=O)(O)CNC(=O)CCc1ccccc1)C(=O)O [Example 5, (S)-6-Amino-2-(((3-phenylpropanoylamino)methyl)(hydroxyphosphinoyl)oxy)hexanoic acid]",30
17,"NCCCCC(OP(=O)(O)C(NC(=O)CCc1ccccc1)C1CCOCC1)C(=O)O [Example 35, (S)-6-Amino-2-((1-(3-phenylpropanoylamino)-1-(tetrahydropyran-4-yl)methyl)(hydroxyphosphinoyl)oxy)bexanoic acid]",> 90
18,"CC(C)C(NC(=O)CCc1ccccc1)P(=O)(O)OC(CCCCN)C(=O)O [Example 19, (S)-6-Amino-2-((2-methyl-(1R)-(3-phenylpropanoylamino)propyl)(hydroxyphosphinoyl)oxy)hexanoic acid]",> 90
19,"CC(C)CC(NC(=O)CCc1ccccc1)P(=O)(O)OC(CCCCN)C(=O)O [Example 12, (S)-6-Amino-2-((3-methyl-1-(3-phenylpropanoylamino)butyl)(hydroxyphosphinoyl)oxy)hexanoic acid]",> 90
20,"NCCCCC(OP(=O)(O)C(CCCN)NC(=O)CCc1ccccc1)C(=O)O [Example 40, (S)-6-Amino-2-((4-amino-1-(3-phenylpropanoylamino)butyl)(hydroxyphosphinoyl)oxy)hexanoic acid]",30
21,"CC(NC(=O)CCc1ccccc1)P(=O)(O)OC(CCCCN)C(=O)O [Example 4, (S)-6-Amino-2-((1-(3-phenylpropanoylamino)ethyl)(hydroxyphosphinoyl)oxy)hexanoic acid]",> 90
22,"CCC(CC)C(NC(=O)CCc1ccccc1)P(=O)(O)OC(CCCCN)C(=O)O [Example 3, (S)-6-Amino-2-((2-ethyl-1-(3-phenylpropanoylamino)butyl)(hydroxyphosphinoyl)oxy)hexanoic acid]",> 90
